The source of these data is patent US10213451B2, “Methods and compounds for modulating the secretion or expression of adhesion proteins or angiopoietins of cells” (PACIFIC ARROW LIMITED, priority 2004, dated 2019).

The test system of the assay is Angiopoietin 2 (Ang2) in ES2 cells. The experiment in a line: Angiopoietin-2 cellular content (Western blot). Type of assay: cell-based, human. The conditions noted are these: low concentration (5, 10 ug/ml), 24 hours. The procedure:
Methods: ES2 (human ovarian carcinoma cells) were grew in RPMI 1640 medium. 4.5 million cells were seeded in a T75 flask and grown for 24 hours before drug-treatment.
Drug-treatment: Cells cultures were treated with 5, 10 and 15 ug/ml (final concentration) of Xanifolia-Y3 [Y3-5, Y3-10, Y3-15]. or DMSO control [D-10]. After 24 hours, cells were suspended in 1 ml of SDS sample buffer (cell-extract). Samples (80 ul/lane) were applied to 10% SDS gel and electrophoresis was conducted with 100 volts for 2 hours. Protein was transferred to a nitrocellulose membrane electrophoretically. The nitrocellulose blot was blocked with 5% non-fat dry milk in PBS. The blot was then incubated with the first antibodies (goat anti-Ang2, SIGMA A0851) and second antibody (donkey anti-goat AP conjugated, Promega V115A). The immuno-bands were developed with BCIP/NBT color development system (Promega S3771).
Drug-treatment: Cells cultures were treated with 5, 10 and 15 ug/ml (final concentration) of Xanifolia-Y3 [Y3-5, Y3-10, Y3-15]. or DMSO control [D-10]. After 24 hours, cells were suspended in 1 ml of SDS sample buffer (cell-extract). Samples (80 ul/lane) were applied to a 10% SDS gel and electrophoresis was conducted with 100 volts for 2 hours. Protein was transferred to a nitrocellulose membrane electrophoretically. The nitrocellulose blot was blocked with 5% non-fat dry milk in PBS. […]
(Immunoblotting shows a protein as a band on a membrane.)

Take `C/C=C(/C)C(=O)O[C@H]1[C@H](OC(=O)/C(C)=C\C)[C@@]2(CO)C(CC1(C)C)C1=CCC3[C@@]4(C)CC[C@H](O[C@@H]5OC(C(=O)O)[C@@H](O)C(O[C@@H]6O[C@@H](CO)C(O)C6O)C5O[C@@H]5OC(CO)[C@H](O)C(O)C5O)C(C)(C)C4CC[C@@]3(C)[C@]1(C)[C@@H](O)[C@H]2O` (stereo partly drawn) [Xanifolia-Y, 3-O-[β-D-galactopyranosyl (1→2)]-α-L-arabinofuranosy (1→3)-β-D-glucuronopyranosyl-21,22-O-diangeloyl-3β, 15α, 16α, 21β, 22α, 28-hexahydroxyolean-12-ene]: the “Angiopoietin-2 immuno-band in cell extract” value is listed as “No detectable or minimal immuno-band”.
